Reference: the supplement of paper PMC10307832

Assays:
Experiment in all cases: relative viability (nuclei count vs DMSO), 5 days (fraction); higher = more cells survive
Selumetinib + OSI-027 = compound: Cn1cnc2c(F)c(Nc3ccc(Br)cc3Cl)c(C(=O)NOCCO)cc21 [Selumetinib] + COc1cccc2cc(-c3nc([C@H]4CC[C@H](C(=O)O)CC4)n4ncnc(N)c34)[nH]c12 [OSI-027] (partner 0.5 µM)
How it was run: (§1)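 Relative viability is defined as nuclei in treated wells over nuclei in vehicle wells. Duplicate plates were run and medians reported. Lung cancer cell lines in 1536-well plates were dosed by pin tool one day after seeding, with one drug or with a fixed anchor-drug dose plus five library-drug doses (not always all listed) in √10 steps, and nuclei were counted after 5 days.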

Selumetinib + Vorinostat = compound: Cn1cnc2c(F)c(Nc3ccc(Br)cc3Cl)c(C(=O)NOCCO)cc21 [Selumetinib] + O=C(CCCCCCC(=O)Nc1ccccc1)NO [Vorinostat] (partner 1 µM)
How it was run: as §1

Selumetinib + Linsitinib = compound: Cn1cnc2c(F)c(Nc3ccc(Br)cc3Cl)c(C(=O)NOCCO)cc21 [Selumetinib] + C[C@]1(O)C[C@@H](c2nc(-c3ccc4ccc(-c5ccccc5)nc4c3)c3c(N)nccn32)C1 [Linsitinib] (partner 1 µM)
How it was run: as §1

Selumetinib + Alpelisib = compound: Cn1cnc2c(F)c(Nc3ccc(Br)cc3Cl)c(C(=O)NOCCO)cc21 [Selumetinib] + Cc1nc(NC(=O)N2CCC[C@H]2C(N)=O)sc1-c1ccnc(C(C)(C)C(F)(F)F)c1 [Alpelisib] (partner 2 µM)
How it was run: as §1

Cell Line	relative viability (Selumetinib + OSI-027; first compound 0.02 µM)	relative viability (Selumetinib + OSI-027; first compound 0.06325 µM)	relative viability (Selumetinib + OSI-027; first compound 0.2 µM)	relative viability (Selumetinib + OSI-027; first compound 0.6325 µM)	relative viability (Selumetinib + Vorinostat; first compound 0.02 µM)	relative viability (Selumetinib + Vorinostat; first compound 0.06325 µM)	relative viability (Selumetinib + Vorinostat; first compound 0.2 µM)	relative viability (Selumetinib + Vorinostat; first compound 0.6325 µM)	relative viability (Selumetinib + Linsitinib; first compound 0.02 µM)	relative viability (Selumetinib + Linsitinib; first compound 0.06325 µM)	relative viability (Selumetinib + Linsitinib; first compound 0.2 µM)	relative viability (Selumetinib + Linsitinib; first compound 0.6325 µM)	relative viability (Selumetinib + Alpelisib; first compound 0.02 µM)	relative viability (Selumetinib + Alpelisib; first compound 0.06325 µM)	relative viability (Selumetinib + Alpelisib; first compound 0.2 µM)	relative viability (Selumetinib + Alpelisib; first compound 0.6325 µM)
NCI-H522	0.693	0.64	0.685	0.682	0.855	0.846	0.851	0.921	–	–	–	–	–	–	–	–
HCC-366	0.911	0.756	0.72	0.422	0.335	0.41	0.344	0.445	0.525	0.406	0.249	0.229	0.361	0.273	0.196	0.158
A-427	0.482	0.327	0.321	0.288	0.93	0.94	0.976	0.878	1.16	1.09	1.02	0.925	1.06	1.05	0.936	0.817
NCI-H2347	0.412	0.294	0.255	0.177	0.521	0.467	0.36	0.283	0.748	0.633	0.47	0.436	0.832	0.613	0.445	0.387
NCI-H1792	0.761	0.727	0.67	0.611	–	–	–	–	0.442	0.475	0.361	0.251	0.684	0.603	0.485	0.386
LCLC-97TM1	0.487	0.386	0.325	0.249	0.925	0.714	0.661	0.437	0.227	0.193	0.207	0.2	0.275	0.25	0.259	0.185
RERF-LC-KJ	0.535	0.477	0.526	0.472	0.649	0.656	0.629	0.637	0.828	0.949	0.862	0.796	0.858	0.772	0.693	0.636
NCI-H1993	0.553	0.585	0.585	0.632	0.85	0.6	0.597	0.612	0.746	0.688	0.754	0.878	0.681	0.584	0.769	0.702
NCI-H1734	0.557	0.635	0.539	0.537	0.787	0.814	0.694	0.85	0.862	0.849	0.865	0.816	0.638	0.66	0.587	0.596
HCC-44	0.482	0.388	0.35	0.368	1.1	1.05	1.06	1.07	0.701	0.639	0.539	0.575	0.88	0.72	0.719	0.663
SK-MES-1	0.603	0.598	0.587	0.447	0.938	0.85	0.853	0.65	1.03	1.03	0.814	0.775	0.851	0.587	0.56	0.396
EPLC-272H	0.284	0.259	0.236	0.183	0.312	0.343	0.3	0.256	0.968	1.09	0.848	1.06	0.749	0.656	0.58	0.66
NCI-H838	0.31	0.327	0.315	0.252	0.644	0.54	0.654	0.636	0.883	0.848	0.807	0.735	0.847	0.81	0.807	0.704
SK-LU-1	0.339	0.331	0.357	0.208	0.779	0.717	0.686	0.443	0.897	1.06	0.903	0.625	1.01	0.988	0.838	0.542
NCI-H1623	0.39	0.383	0.343	0.359	–	–	–	–	–	–	–	–	–	–	–	–
Calu-6	–	–	–	–	–	–	–	–	1.03	0.77	0.522	0.362	0.936	0.613	0.486	0.346
LCLC-103H	0.474	0.425	0.453	0.44	0.811	0.768	0.712	0.691	1.04	0.952	0.804	0.968	0.851	0.917	0.841	0.874
CAL-12T	0.636	0.492	0.516	0.395	0.81	0.724	0.569	0.507	0.821	0.762	0.663	0.588	1.22	0.823	0.895	0.817
SW 1573	0.515	0.449	0.464	0.458	0.652	0.582	0.703	0.914	0.779	0.642	0.683	0.596	0.868	0.707	0.618	0.552
NCI-H1666	0.909	0.717	0.793	0.717	1.02	0.902	1.06	0.86	0.643	0.614	0.606	0.54	0.701	0.721	0.478	0.551
BEN	0.276	0.315	0.274	0.295	0.527	0.558	0.59	0.632	0.879	0.898	0.745	0.8	1.02	0.932	0.861	0.886
EMC-BAC-2	0.42	0.447	0.511	0.483	0.928	0.682	0.607	0.865	0.732	0.668	0.707	0.743	0.678	0.694	0.645	0.712
